Laboratory results published in US20230257383A1, “COMPOUND SERVING AS BTK INHIBITOR, PREPARATION METHOD THEREFOR, AND USE THEREOF” (CHENGDU HYPERWAY PHARMACEUTICALS CO., LTD., priority 2020, published 2023).

Assays:
[1] = Liver microsome metabolic stability test (human); type: in vitro ADME; settings: for microsomal CLint: liver microsomes, read-out: CLint (μL/min/mg) Human
Description: (§1) 1: To the sample wells of T0, T5, T10, T20, T30, T60 and NCF60, 10 μL of the test or reference working solution and 80 μL of microsome working solution (hepatic microsome with a protein concentration of 0.5 mg/mL) were added, and to Blank60 well, only the microsome working solution was added. Then samples of the Blank60, T5, T10, T20, T30 and T60 other than TO and NCF60 were placed in a 37° C. water bath and pre-incubated for about 10 min.
(§2) 2: To the TO sample well, 300 μL of stop solution (containing 200 ng/mL tolbutamide and 200 ng/mL labetalol in acetonitrile solution) was added first, followed by 10 μL of NADPH regeneration system working solution.
(§3) 3: After the pre-incubation of Blank60, T5, T10, T20, T30 and T60 incubation plates, 10 μL of NADPH regeneration system working solution was added to each sample well to start the reaction, and 10 μL of 100 mM potassium phosphate buffer was added to the NCF60 sample well.
(§4) 4: After incubation for an appropriate time (such as 5, 10, 20, 30 and 60 min), to each test sample well and control well of the Blank60, T5, T10, T20, T30, T60 and NCF60 plates, 300 μL of stop solution was added to terminate the reaction.
(§5) 5: All sample plates were shaken to mix well and centrifuged at 4000 rpm for 20 min, and 100 μL of the supernatant of the test sample or control sample was taken and diluted with 300 μL of pure water for LC-MS/MS analysis.
(§6) 6: Data analysis: T1/2 and CLint(mic) (μL/min/mg) values were calculated according to the first-order elimination kinetics. The first-order elimination kinetics equation was: […]

[2] = Liver microsome metabolic stability test (rat); type: in vitro ADME; settings: for microsomal CLint: liver microsomes, read-out: CLint (μL/min/mg) Rat
Description: as §1, §2, §3, §4, §5, §6

[3] = tested on: BT474 cell proliferation; test: In vitro cell proliferation inhibitory activity test (CTG), BT474; type: cell-based; settings: Homo sapiens, BT-474, BT474 cell proliferation
Description: (§7) Test Example 4: In Vitro Cell Proliferation Inhibitory Activity Test
(§8) Cells were cultured in 1640 medium, added with 10% inactivated FBS and 1% double antibiotics, and cultured at 37° C. and 5% CO2.
(§9) (1) Cells were routinely cultured until the cell density was 80%-90%, and the cells were harvested when their number reached the requirement.
(§10) (2) Cells were resuspended with corresponding culture medium, counted, and prepared into cell suspension at appropriate density.
(§11) (3) The cell suspension was added to a 96-well plate, 100 μL per well.
(§12) (4) Cells were cultured overnight in a 37° C., 5% CO2 incubator.
(§13) (1) The compounds to be tested were diluted with DMSO to make a stock solution with a final concentration of 20 mM for later use.
(§14) (2) The stock solution was diluted 10 times from 20 mM to 2 mM with DMSO, and then diluted 3 times from 2 mM to 9 concentrations.
(§15) (3) The blank control wells were cells plus 0.5% DMSO, as high-reading control wells.
(§16) (4) Wells with no cells and only medium were used as low-reading control wells.
(§17) 4: Cell treatment with compound
(§18) (1) 24 h after the cells were plated, the compounds acted alone, and 99 μL of growth medium was added to each well, followed by 1 μL of the compound prepared in step 3. The plate was shaken gently to mix uniformly, and then placed in a 37° C., 5% CO2 incubator.
(§19) (2) The cell plate was placed in an incubator for 72 h.
(§20) 5: Detection by CTG method
(§21) (1) The cell plate to be tested was placed at room temperature for 30 min, and 100 μL of medium was discarded from each well.
(§22) (2) 100 μL of CTG reagent (CelltiterGlo kit) was added to each well, placed on a fast shaker for 2 min, and stood at room temperature in the dark for 30 min.
(§23) (3) The chemiluminescent signal value was read with the Envision instrument.
(§24) IC50 was calculated by using GraphPad Prism 8 software. The IC50 (half inhibitory concentration) of the compound was derived using the following nonlinear fitting formula, and the results are shown in the following table:
(§25) Y=Bottom+(Top−Bottom)/(1+10^((Log IC50−X)×HillSlope))
(§26) X: log value of compound concentration, Y: inhibition rate (% inhibition)
(§27) Inhibition rate (% inhibition)=(reading of high-reading control well-reading of compound well)/(reading of high-reading control well-reading of low-reading control well)×100

[4] = tested on: TMD8 cell proliferation; test: In vitro cell proliferation inhibitory activity test (CTG), TMD8; type: cell-based; settings: Homo sapiens, TMD8, 72 h, TMD8 cells
Description: as §7, §8, §9, §10, §11, §12, §13, §14, §15, §16, §17, §18, §19, §20, §21, §22, §23, §24, §25, §26, §27

[5] = tested on: DOHH2 cell proliferation; test: In vitro cell proliferation inhibitory activity test (CTG), DOHH2; type: cell-based; settings: Homo sapiens, DOHH-2
Description: as §7, §8, §9, §10, §11, §12, §13, §14, §15, §16, §17, §18, §19, §20, §21, §22, §23, §24, §25, §26, §27

[6] = Pharmacokinetic test, oral, SD rats; type: in vivo; settings: oral 10 mg/kg
Description: Each test compound was administered orally (10 mg/kg, 3 rats in each group) to SD rats for pharmacokinetic study. […] Animals were fasted overnight before oral administration, and fed again after 4 h of administration. […] At each collection time point, 3 whole blood samples were collected at a the collection volume of about 0.2-0.3 mL. […] The collected plasma was stored at −20° C. before analysis. 20 μL of plasma sample was added into a 1.6 mL 96-well deep-well plate, added with 200 μL of working internal standard solution (the same volume of vehicle was added to the blank instead of internal standard), vortexed for 1 min, and centrifuged at 5800 rpm for 10 min. 100 μL of the supernatant was added to a 96-well injection plate for LC-MS/MS analysis.

| SMILES | microsomal CLint [1] | microsomal CLint [2] | IC50 [3] | also measured |
| --- | --- | --- | --- | --- |
| Nc1nccn2c(C34CCC(CO)(CC3)OC4)nc(-c3ccc(C(F)(F)c4ccc(F)c(Cl)c4)cc3)c12 [Example 140] |  |  | 504 nM |  |
| O=C(c1ccc(Oc2ccccc2)cc1Cl)c1c[nH]c2ncnc(N[C@@H]3CC[C@@H](CO)OC3)c12 [ARQ-531, reference compound] | < 9.6 µL/min/mg | < 9.6 µL/min/mg |  | IC50 [4]: 74.6 nM; IC50 [5]: 174 nM |
| COc1cccc(Oc2ccc(-c3nc(C45CCC(CO)(CC4)OC5)n4ccnc(N)c34)c(F)c2)c1C#N [Example 115] |  |  |  | IC50 [4]: 6.1 nM |
| COc1cccc(C(F)(F)c2ccc(-c3nc(C45CCC(CO)(CC4)OC5)n4ccnc(N)c34)cc2)c1F [Example 129] |  |  | 208 nM |  |
| COc1ccccc1C(=O)NCc1ccc(-c2nn(C3CCC(CO)OC3)c3ncnc(N)c23)cc1 (single isomer, unassigned) [Example 60-B] |  |  |  | Cl [6]: 188.82 mL/min/kg |
| Nc1nccn2c(C34CCC(CO)(CC3)OC4)nc(-c3ccc(C(c4ccccc4)(C(F)(F)F)C(F)(F)F)cc3)c12 [Example 159] |  |  | > 1000 nM |  |
| Cc1c(F)cccc1C(F)(F)c1ccc(-c2nc(C34CCC(CO)(CC3)OC4)n3ccnc(N)c23)cc1 [Example 147] |  |  | 377 nM |  |
| Cc1cccc(C(F)(F)c2ccc(-c3nc(C45CCC(CO)(CC4)OC5)n4ccnc(N)c34)cc2)c1F [Example 139] |  |  | 209 nM |  |
| Nc1nccn2c(C34CCC(CO)(CC3)OC4)nc(-c3ccc(C(F)(F)c4ccccc4F)c(F)c3)c12 [Example 156] |  |  | 269 nM |  |
| CS(=O)(=O)CCNCc1ccc(-c2ccc3ncnc(Nc4ccc(OCc5cccc(F)c5)c(Cl)c4)c3c2)o1 [Lapatinib] |  |  | 55.2 nM |  |
| Nc1nccn2c([C@@H]3CC[C@H](CO)OC3)nc(-c3ccc(C(=O)Nc4ccccn4)cc3)c12 (single isomer, unassigned) [Example 2-A-P1] |  |  |  | CLint (μL/min/mg) Human [1]: <9.6 µL/min/mg; % Remaining (60 min) Human [1]: 122.5%; CLint (μL/min/mg) Rat [2]: <9.6 µL/min/mg; % Remaining (60 min) Rat [2]: 95.5%; AUC(0-∞) [6]: 77004 ng·h/mL |
| Nc1nccn2c(C34CCC(CO)(CC3)OC4)nc(-c3ccc(C(F)(F)c4c(F)cccc4F)cc3)c12 [Example 153] |  |  | 121 nM |  |
| Nc1nccn2c(C34CCC(CO)(CC3)OC4)nc(-c3ccc(C(F)(F)c4ccccc4)cc3F)c12 [Example 114] |  |  | 173 nM |  |
| Nc1nccn2c(C3CC[C@@H](CO)OC3)nc(-c3ccc(C(=O)Nc4ccccn4)cc3F)c12 (some centres unmarked) [Example 1-B] |  |  |  | CLint (μL/min/mg) Human [1]: <9.6 µL/min/mg; % Remaining (60 min) Human [1]: 99.9%; CLint (μL/min/mg) Rat [2]: 18.2 µL/min/mg; % Remaining (60 min) Rat [2]: 63.7% |
| Nc1nccn2c(C34CCC(CO)(CC3)OC4)nc(-c3ccc(C(F)(F)c4cccc(C5CC5)c4)cc3)c12 [Example 143] |  |  | 467 nM |  |
| Nc1nccn2c(C34CCC(CO)(CC3)OC4)nc(-c3ccc(C(F)(c4ccccc4)C(F)(F)F)cc3)c12 (centres unmarked) [Example 158] |  |  | 4950 nM |  |
| Nc1nccn2c(C3CCC(CO)OC3)nc(-c3ccc(C(=O)Nc4cc(C(F)(F)F)ccn4)cc3)c12 (single isomer, unassigned) [Example 109-P1] |  |  |  | IC50 [4]: 12.2 nM |
| Nc1nccn2c(C34CCC(CO)(CC3)OC4)nc(-c3ccc(C(=O)Nc4ccccn4)cc3)c12 [Example 34] | < 9.6 µL/min/mg | < 9.6 µL/min/mg |  | IC50 [4]: 56.9 nM |
| COc1ccc(F)cc1C(=O)NCc1ccc(-c2nn([C@@H](C)C(F)(F)F)c(N)c2C(N)=O)cc1 [LOXO-305] |  |  |  | IC50 [4]: 184 nM; IC50 [5]: 4990 nM |
| Nc1nccn2c(C34CCC(CO)(CC3)OC4)nc(-c3ccc(C(F)(F)c4c(F)c(F)cc(F)c4F)cc3)c12 [Example 144] |  |  | 191 nM |  |
| Nc1nccn2c(C34CCC(CO)(CC3)OC4)nc(-c3ccc(C(O)(c4ccccc4)C(F)(F)F)cc3)c12 (centres unmarked) [Example 157] |  |  | 2270 nM |  |

Now from value to compound, other results behind:

| microsomal CLint [1] | microsomal CLint [2] | IC50 [3] | SMILES | also measured |
| --- | --- | --- | --- | --- |
| 13.2 µL/min/mg | 30.3 µL/min/mg |  | Cc1ccnc(NC(=O)c2ccc(-c3nc(C4CCC(CO)OC4)n4ccnc(N)c34)cc2)c1 (centres unmarked) [Example 70] |  |
| 48.4 µL/min/mg | 114 µL/min/mg |  | Nc1nccn2c(C3CCC(CO)OC3)nc(-c3ccc(Oc4cccc(Cl)c4F)cc3)c12 (centres unmarked) [Example 9] | % Remaining (60 min) Human [1]: 24.5%; % Remaining (60 min) Rat [2]: 3.2% |
| < 9.6 µL/min/mg | 29.8 µL/min/mg |  | COc1cccc(Oc2ccc(-c3nc(C4CCC(CO)OC4)n4ccnc(N)c34)cc2)c1 (centres unmarked) [Example 101] |  |
| 124 µL/min/mg | 118 µL/min/mg |  | COc1cccc(Oc2ccc(-c3nc(C4CCC(CO)OC4)n4c(Cl)cnc(N)c34)cc2)c1F (centres unmarked) [Example 12] | % Remaining (60 min) Human [1]: 2.6%; % Remaining (60 min) Rat [2]: 3.0% |
| 36.9 µL/min/mg | 63.9 µL/min/mg |  | Nc1nccn2c(C3CCC(CO)OC3)nc(-c3ccc(Oc4ccccc4)cc3)c12 (centres unmarked) [Example 16] | % Remaining (60 min) Human [1]: 31.8%; % Remaining (60 min) Rat [2]: 14.6% |
| 33.9 µL/min/mg | 66.5 µL/min/mg |  | Nc1nccn2c(C3CCC(CO)OC3)nc(-c3ccc(Oc4cccc(F)c4F)cc3)c12 (centres unmarked) [Example 8] |  |
| 10.9 µL/min/mg | 26.1 µL/min/mg |  | Nc1nccn2c(C3CCC(CO)OC3)nc(-c3ccc(C(F)(F)c4ccccc4)cc3)c12 (centres unmarked) [Example 111] |  |
| 36.8 µL/min/mg | 81.6 µL/min/mg |  | Nc1nccn2c(C3CCC(CO)OC3)nc(-c3ccc(Oc4c(F)cccc4F)cc3)c12 (centres unmarked) [Example 64] |  |
| 13.1 µL/min/mg | 29.5 µL/min/mg |  | Nc1nccn2c(C3CCC(CO)OC3)nc(-c3ccc(Cc4ccccc4)cc3)c12 (centres unmarked) [Example 106] | IC50 [4]: 49.5 nM |
| 47.1 µL/min/mg | 83.1 µL/min/mg |  | Nc1nccn2c(C3CCC(CO)OC3)nc(-c3ccc(Oc4cccc(C(F)(F)F)c4F)cc3)c12 (centres unmarked) [Example 19] |  |
| < 9.6 µL/min/mg | < 9.6 µL/min/mg |  | N#Cc1ccnc(NC(=O)c2ccc(-c3nc(C4CCC(CO)OC4)n4ccnc(N)c34)cc2)c1 (centres unmarked) [Example 103] | Cl [6]: 16.67 mL/min/kg; IC50 [4]: 25.1 nM |
| 38.8 µL/min/mg | 122 µL/min/mg |  | COc1cccc(Oc2ccc(-c3nc(C4CCC(CO)OC4)n4ccnc(N)c34)cc2)c1F (centres unmarked) [Example 5] |  |
| 74.9 µL/min/mg | 255 µL/min/mg |  | Cc1cccc(Oc2ccc(-c3nc(C4CCC(CO)OC4)n4ccnc(N)c34)cc2)c1F (centres unmarked) [Example 24] |  |
| 31.1 µL/min/mg | 46.1 µL/min/mg |  | Nc1nccn2c(C3CCC(CO)OC3)nc(-c3ccc(C(=O)c4ccccc4)cc3)c12 (centres unmarked) [Example 26] |  |
